# Reference: US11564911B2, “Small molecule dual-inhibitors of TRPV4 and TRPA1 for sanitizing and anesthetizing” (Duke University, priority 2016, dated 2023)
# Experiments:
# [1] = Stability of compound in plasma; settings: 4 h incubation in plasma at 37° C.
# Description: Results are expressed as means±SEM, n=6 mice/experimental group for all experiments.
# [2] = tested on: primary mouse keratinocytes (1° MK); assay: ET1 immunocytochemistry in UVB-exposed primary mouse keratinocytes; assay type: cell-based; settings: 295 nm UVB-LED
# Method: 1° MK were exposed to UVB using the UV optical system (295 nm LED). 24 hours later the cells were fixed and fluorescently immunolabeled for ET1. Digital images were captured and subjected to morphometry.
# Mouse keratinocytes were cultured on collagen coated quartz coverslips and then stimulated from the bottom using the previously mentioned UV optical system using the 295 nm LED. 24 hours later the cells were fixed in 4% formaldehyde in PBS for 20 minutes, permeabilized with 0.1% Triton X-100 in PBS for 10 minutes, washed, then blocked in 10% normal goat serum in PBS for 45 minutes. Coverslips were incubated overnight with primary antibody mouse anti-ET1 (1:200; Abcam), washed three times in PBS and incubated with secondary antibody for 2 hours at 25° C. Coverslips were washed three times in PBS, once with double-distilled H2O. Digital images were captured using a 40× immersion lens on the BX61 Olympus upright microscope. Morphometric analysis was conducted using ImageJ freeware with tailored regions-of-interest.
# [3] = tested on: mice, UVB-exposed hind paws; assay: UVB-evoked nocifensive behavior after topical GSK205 (Hargreaves, von Frey); assay type: in vivo, mouse
# Method: Behavioral tests were performed to evaluate the decrease in withdrawal thresholds in response to mechanical von Frey hair or thermal stimuli applied to hind paws. […]. These withdrawal thresholds were ascertained before and after UV exposure. Mice were exposed using a Bio Rad Gel Doc 2000 UV transilluminator (302 nm) for 5 minutes with an exposure of 600 mJ/cm^2, 3-5 days after the last application of tamoxifen/oil.
# GSK205 topical treatment: A viscous solution of 68% EtOH/5% glycerol plus 1 mM or 5 mM GSK205 (none for control) was applied to hindpaws by rubbing in 20 μL, applied at time-points 1 hour and again 10 min before UV exposure.
# Behavioral tests were performed to evaluate the decrease in withdrawal thresholds in response to mechanical or thermal stimuli applied to hind paws. These withdrawal thresholds were ascertained before and after UVB exposure. Mice were confined by plexi-glass enclosures on top of 25×26 cm Bio Rad Gel Doc 2000 UV transilluminator (302 nm), and otherwise allowed to openly explore this environment. UV-exposure lasted for 5 minutes with an exposure of 600 mJ/cm^2.
# Hindpaw mechanical withdrawal thresholds were determined by the automated von Frey hair method, using a 0.5 mm diameter stainless steel filament, part of an automated plantar touch stimulator (Ugo Basile, Modena, Italy). Relevant detail included pre-test acclimatization in a quiet room for 30 min, conducting the test at the same time of day and blinded observers. The stimulus was delivered to the hindpaw, automatically discontinued upon withdrawal, and its intensity recorded automatically. 6-8 trials per animal were conducted, with equal exposure of both hindpaws, leading to an average withdrawal threshold. Results are reported as […], which was calculated by subtracting post-treatment from pre-treatment measurements, expressed as % or relative to 1.0.
# Hindpaw thermal (hot) withdrawal thresholds were determined by the well-established Hargreaves' method, using an infra-red thermal stimulation device that delivers the stimulus from underneath the hindpaw combined with automatic shut-off upon withdrawal (Ugo Basile). Stimulation and measurements were conducted as described for von Frey hair testing. A cutoff of 20 sec was set to prevent tissue damage.
# [4] = UVB permeation of foot-pad skin; parameters: species or system mouse; settings: topically applied, vs vehicle
# Method: The UV LED was powered with 20 mA of current, resulting in 500 μW of optical power in a circular focal spot 1.5 mm in diameter, with 70% of the total flux in a 0.5 mm beam radius. The UV optical power transmitted through the sample was detected by a Hamamatsu S127-66BR UV detector, and the output of the photodetector was measured using a Keithley 236 source measure unit. Next, the foot-pad epidermis of a mouse was measured for UV transmission by placing it on a quartz coverslip and exposure to the UV beam. The vehicle-control group was treated with the alcohol and glycerol solution only. Another control group consisted of a commercially-available SPF100 preparation sunscreen in form of a cream, which was applied similar to the vehicle-control. The data for the GSK205 and sunscreen was normalized to this control data.
# TRPV4 [5] = target: T1, TRPV4 (Sus scrofa, UniProt B3VP30); assay: Ca++ imaging in primary articular chondrocytes, GSK101 stimulation; assay type: cell-based; settings: primary articular chondrocytes (pig), 5 nM GSK101
# T1 construct: primary cells, which express functional and biologically-relevant TRPV4 without directed over-expression of the channel; endogenous in cells; host or cells: primary porcine articular chondrocytes (femoral condyles)
# Method: (§1) FIGS. 28A-28B: Compound 16-8 inhibits TRPV4 in I° cells more potently than GSK205. […] Inset: Chondrocytes responding to activation with GSK101, fura-2 Ca++ imaging; right-hand image taken at 5 sec after GSK101 application. […] (FIG. 28B) 1° (primary) astrocytes (rat); dose-response comparison between 16-8 and GSK205 in response to 5 nM GSK101. Inset: Astrocytes responding to activation with GSK101; right-hand image taken at 5 sec after GSK101 application (mean±SEM, n=5 independent expts, 200 cells/expt; *p<0.05, t-test).
# Primary porcine chondrocytes derived from femoral condyles of skeletally mature pigs were cultured and subjected to Ca++ imaging as described previously^19,32,62,63.
# TRPV4 [6] = target: TRPV4 (Rattus norvegicus, UniProt Q9ERZ8); assay: Ca++ imaging in primary astrocytes, GSK101 stimulation; assay type: cell-based; settings: 5 nM GSK101
# Method: as §1
# Astrocyte cultures were conducted following established protocols^64-66. Astrocytes were prepared from Sprague Dawley rat embryos (E18). Briefly, the isolated cortices were minced, and then incubated with trypsin and DNase. Dissociated cells were suspended in Dulbeccco's Modified Eagle's Medium (DMEM) supplemented with 10% fetal calf serum and penicillin/streptomycin (100 U/ml and 100 μg/ml, respectively). Thereafter, cell sus-pensions were plated in 75 cm^2 tissue culture flasks (10×10^6 cells/flask) which were pre-coated with poly-L-lysine (10 μg/ml). The cells were maintained in a […] incubator at 37° C.
# TRPV4 (Rattus norvegicus, UniProt Q9ERZ8), sequence (Q9ERZ8 whole entry): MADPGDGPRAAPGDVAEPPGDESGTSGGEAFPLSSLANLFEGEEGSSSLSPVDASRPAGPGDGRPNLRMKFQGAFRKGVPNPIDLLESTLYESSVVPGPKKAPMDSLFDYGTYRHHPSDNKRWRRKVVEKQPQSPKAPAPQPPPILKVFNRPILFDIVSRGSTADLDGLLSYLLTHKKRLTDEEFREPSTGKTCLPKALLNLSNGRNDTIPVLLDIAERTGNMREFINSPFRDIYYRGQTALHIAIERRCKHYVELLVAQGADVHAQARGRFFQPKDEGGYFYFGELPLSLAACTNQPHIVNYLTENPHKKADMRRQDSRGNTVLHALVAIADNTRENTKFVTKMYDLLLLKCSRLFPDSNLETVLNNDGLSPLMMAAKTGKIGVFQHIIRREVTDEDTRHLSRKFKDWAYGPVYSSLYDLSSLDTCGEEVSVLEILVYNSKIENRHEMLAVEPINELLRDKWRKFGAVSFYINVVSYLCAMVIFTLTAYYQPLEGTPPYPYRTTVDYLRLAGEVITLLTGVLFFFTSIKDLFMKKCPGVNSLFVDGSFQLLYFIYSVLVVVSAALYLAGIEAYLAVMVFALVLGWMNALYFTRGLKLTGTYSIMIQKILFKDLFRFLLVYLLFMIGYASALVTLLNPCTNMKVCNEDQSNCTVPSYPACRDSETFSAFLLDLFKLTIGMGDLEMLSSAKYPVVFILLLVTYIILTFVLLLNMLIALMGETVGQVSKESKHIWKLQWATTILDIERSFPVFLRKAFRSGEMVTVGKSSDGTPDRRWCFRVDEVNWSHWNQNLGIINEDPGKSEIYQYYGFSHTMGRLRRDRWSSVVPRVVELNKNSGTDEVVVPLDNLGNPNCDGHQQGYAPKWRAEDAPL
# T1 sequence (B3VP30 1-871): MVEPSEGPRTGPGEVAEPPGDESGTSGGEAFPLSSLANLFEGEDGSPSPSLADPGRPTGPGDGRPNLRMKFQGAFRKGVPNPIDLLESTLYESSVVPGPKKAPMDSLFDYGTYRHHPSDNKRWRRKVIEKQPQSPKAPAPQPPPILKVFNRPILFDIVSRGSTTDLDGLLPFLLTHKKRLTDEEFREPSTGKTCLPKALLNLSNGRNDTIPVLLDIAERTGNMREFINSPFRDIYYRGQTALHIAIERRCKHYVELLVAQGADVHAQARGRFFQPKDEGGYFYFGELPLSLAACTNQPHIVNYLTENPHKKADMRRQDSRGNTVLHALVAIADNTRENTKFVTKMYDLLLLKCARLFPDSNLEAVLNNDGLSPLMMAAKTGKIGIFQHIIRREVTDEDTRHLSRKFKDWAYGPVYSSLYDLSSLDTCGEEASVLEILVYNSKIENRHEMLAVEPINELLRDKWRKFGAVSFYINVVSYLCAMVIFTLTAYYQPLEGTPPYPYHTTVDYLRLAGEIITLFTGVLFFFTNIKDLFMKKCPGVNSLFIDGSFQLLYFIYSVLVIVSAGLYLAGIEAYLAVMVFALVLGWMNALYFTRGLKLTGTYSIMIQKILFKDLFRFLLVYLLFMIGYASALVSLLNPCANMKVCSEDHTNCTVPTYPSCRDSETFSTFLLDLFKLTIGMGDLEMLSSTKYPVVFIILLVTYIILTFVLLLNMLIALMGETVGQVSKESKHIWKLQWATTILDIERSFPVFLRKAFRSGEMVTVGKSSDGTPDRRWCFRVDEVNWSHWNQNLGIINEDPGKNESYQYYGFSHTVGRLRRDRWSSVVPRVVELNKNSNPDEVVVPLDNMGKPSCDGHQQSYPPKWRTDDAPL
structure (smiles),measurement,setting,value
CCN(CCc1ccc(Nc2nc(-c3ccccc3)cs2)cc1)Cc1ccccc1 [Compound 16-19],stability in plasma,[1],no loss of detectable compound
CN(CCc1ccc(Nc2nc(-c3cccnc3)cs2)cc1)Cc1ccccc1 [GSK205],ET1 immunoreactivity in UVB-exposed 1° MK,[2],significant down-regulation
same,delay in thermal hypersensitivity after UVB,"[3]; topical 1 mM GSK205, WT mice",~24 h
same,off-target effects on withdrawal behavior,"[3]; topical 5 mM GSK205, Trpv4−/− mice vs vehicle",did not elicit off-target effects
same,sensitivity to von Frey hair mechanical stimulation after UVB,"[3]; topical 5 mM GSK205, WT mice",significantly reduced sensitivity
same,thermally-evoked nocifensive behavior after UVB,"[3]; topical 5 mM GSK205, WT mice",sustained attenuation
same,UVB permeation of paw-pad skin,[4],equal UVB permeation
CN(CCc1ccc(Nc2nc(-c3ccccc3)cs2)cc1)Cc1ccccc1 [Compound 16-8],"potency versus GSK205, dose-response of peak ΔCa++",TRPV4 [5],significantly more potent than GSK205
same,"potency versus GSK205, dose-response of peak ΔCa++",TRPV4 [6],significantly increased potency
